Measured values taken from patent EP0370656A1, “Treatment of myelosuppression associated with acquired immune deficiency” (SCHERING CORPORATION, priority 1988, dated 1990).
Where two headings read alike, the source gives them in different places.

Legend:
[1] = tested on: white blood cell (WBC) count; details: for WBC (per cm³): GM-CSF 0 µg/kg
Excerpt: A person was diagnosed as having AIDS and CMV retinitis. […]

[2] = tested on: cytomegalovirus retinitis; details: intravenous, 7.5 to 15 mg per kilogram per day; patients with cytomegalovirus retinitis; cited from earlier work

Nc1nc(O)c2ncn(COC(CO)CO)c2n1 [DHPG, 9-(1,3-dihydroxy-2-propoxymethyl) guanine]
WBC (per cm³) ([1]; Example 1, person, Day 0, % dose of DHPG changed to 50): 1000 per cm³ | result of DHPG treatment (adverse effect) ([1]; Example 1, DHPG commenced at Day 0): life threatening myelosuppression | WBC (per cm³) ([1]; Example 1, Day 29, % dose of DHPG changed to 50): 700 per cm³ | WBC (per cm³) ([1]; Example 1, Day 34, % dose of DHPG changed to 0): 300 per cm³ | WBC (per cm³) ([1]; Example 1, Day 49 (DHPG at 0 % since Day 34), % dose of DHPG changed to 100): 1900 per cm³ | WBC (per cm³) ([1]; Example 1, Day 52, % dose of DHPG changed to 50): 700 per cm³ | major adverse effect of DHPG therapy [2]: dose related myelosuppression, especially neutropenia
